Experimental data as given in patent US12049662B2, “Rapid antimicrobial susceptibility testing by video-based object scattering intensity detection” (ARIZONA BOARD OF REGENTS ON BEHALF OF ARIZONA STATE …, priority 2021, dated 2024).

Legend:
[1] = tested on: S. saprophyticus ATCC 15305; assay: OSID-AST (object scattering intensity detection) with pure S. saprophyticus culture; settings: 2 μg/ml ciprofloxacin
Excerpt: ICt is the integrated object scattering intensity of samples without antibiotics at time t, IC0 is the initial intensity of the same sample. ΔIC=ICt−IC0 and ΔIABX=IABXt−IABX0, represent the integrated object scattering intensity change at time t for antibiotic-untreated (control) and -treated samples, respectively. […] For antibiotic resistance detection, the integrated object intensity change over time in the raw sample (ΔIC=ICt−IC0) and in the antibiotic treated sample (ΔIABX=IABXt−IABX0) are calculated. If the ratio between the two (ΔIABX/ΔIC) is above a resistant threshold (TR), or ΔIABX/ΔIC>TR, which indicates insufficient bacterial inhibition by the antibiotic, the sample is identified as resistant. If the ratio is at or below TR, bacteria growth is inhibited by the antibiotic, and the sample is defined as susceptible to that antibiotic.

E. coli ATCC 25922 = assay: OSID-AST (object scattering intensity detection) with pure E. coli culture; assay type: cell-based; settings: 32 μg/ml nitrofurantoin or 2 μg/ml ciprofloxacin, 5 representative tests
Description: The integrated object scattering intensity quantification enables detection of bacterial infection and AST for infection positive samples with an algorithm such as that depicted in FIG. 1C. Two test solutions are prepared from a patient's sample. One solution with medium and antibiotics for AST and the other one with medium only as control. To detect bacterial infection, the integrated object scattering intensity in the control group is quantified over time (e.g., the object scattering intensity is measured every 5 min with the 1 min video and for a total of 90 min). Clinical decision determination is based on integrated object scattering intensity. […] Otherwise, the sample is determined as infection negative. For antibiotic resistance detection, the integrated object intensity change over time in the raw sample (ΔIC=ICt−IC0) and in the antibiotic treated sample (ΔIABX=IABXt−IABX0) are calculated. […]
To establish the method, E. coli and S. saprophyticus cultures (see Materials and Methods) with and without antibiotics were imaged for bacteria growth measurements. […] The integrated object intensity of all cells was quantified with a 1 min duration video in every 5 min interval for a total of 90 min after real-time background removal processing. […] To accurately track E. coli growth, the averaged intensity of a 1 min video was quantified in every 5 min.

| SMILES | ΔIABX/ΔIC ([1]; 90 min, resistance threshold 0.5) | object intensity change of antibiotic treated sample ([1]; 90 min detection, control sample ~1.7 times) | antibiotic susceptibility determination with OSID-AST ([1]; threshold 0.5) | time at which antibiotic susceptibility of E. coli cells can be determined (object intensity detection) (E. coli ATCC 25922) |
| --- | --- | --- | --- | --- |
| O=C(O)c1cn(C2CC2)c2cc(N3CCNCC3)c(F)cc2c1=O [ciprofloxacin] | ~0.14 | ~1.1 times | susceptible | 60 min |
| O=C1CN(/N=C/c2ccc([N+](=O)[O-])o2)C(=O)N1 [nitrofurantoin] |  |  |  | 40 min |
